How the values were obtained:
[1] = tested on: midbrain cells in culture; assay: Dead (necrotic) cells by propidium iodide staining of cell nuclei; type: cell-based, mice; details: 48 hours, 50 μM; control about 20%
Method: FIG. 4b Percentage of dead (necrotic) cells after incubation with 50 μM 9-methyl-β-carboline for 48 hours 10 DIV-12 DIV.
(§1) Dying cells release the enzyme lactate dehydrogenase (LDH) into the medium. Since cells always die in culture always a small LDH concentration can be detected in the medium as an indirect measure for the vitality of the culture. Compared to control conditions the LDH concentration decreased after incubation with 9-methyl-β-carboline in a dose-dependent manner with a concentration up to 50 μM (FIG. 4a). The number of dead cells can be quantified by staining the cell nuclei with propidium iodide.

[2] = tested on: dopaminergic neurons; assay: 3H-dopamine uptake (dopamine transport capacity) in midbrain culture; type: cell-based, mice; details: 50 μM, 48 hours, 10 DIV-12 DIV
Method: FIG. 2b Dopamine transport capacity of dopaminergic neurons after 48 hours. ^3H-dopamine uptake after incubation with 50 μM 9-Me-BC for 48 hours from 10 DIV-12 DIV.
(§2) To obtain further hints that the number of dopaminergic neurons really has increased, the dopamine concentration was measured. […] Another characteristic and specificity of dopaminergic neurons is the transport of dopamine into the neurons. Dopamine cannot permeate the outer membrane of neurons because of its hydrophilic character. It must be actively and energy-dependently transported through the DAT mechanism.

[3] = tested on: genes involved in neuronal differentiation, inflammation, apoptosis; assay: Microarray analysis of gene transcription in midbrain cultures; type: cell-based, mice; details: vs control cultures
Description: These findings were further sustained by so-called microarray methods. The analyses confirm that the transcription of genes involved in neuronal differentiation is increased.

[4] = tested on: neurons (total); assay: Total number of neurons in midbrain culture (different dyes); type: cell-based, mice; details: 50 μM, 48 hours; not as much as dopaminergic neurons
Method: FIG. 3 Percentage of neurons (total) after incubation with 50 μM 9-methyl-β-carboline for 48 hours from 10 DIV-12 DIV.
9-methyl-β-carboline was used to show whether only dopaminergic neurons were influenced, or other neurons or glial cells as well. This question can be answered by the use of different dyes.

[5] = tested on: glial cell line-derived neurotrophic factor (GDNF); assay: PCR superarray of RNA from the striata of MPP+ rats: GDNF; type: in vivo, rat
Description: To investigate Parkinson's disease acute in vivo models are used for years although chronic models would be a better model for the disease. Another disadvantage of the acute models is that ca. 40% of the animals die from the application of the neurotoxin. Therefore, we have chosen a chronic model in which comparably very low doses of neurotoxin 1-methyl-4-phenylpyridinium (MPP^+) were infused for 28 days into the left lateral ventricle of the rat brain. The substance was continuously applied through osmotic minipumps. Thereby, casualties were completely avoided. After four weeks, either solvent or equimolar amounts of the sample substance, namely neuroprotective betacarboline, resp. 9-alkyl-betacarboline was infused for two weeks via the same catheter. In a preliminary study for dose-finding the MPP^+ dose which leads to a reduction by 40% of the dopamine concentration in the striatum was determined. The dopamine concentration in the striatum is a characteristic marker for Parkinson's disease in which a degeneration of dopaminergic neurons occurs.
An explanation for the effect of the betacarboline was found in the tests of the RNA from the striata of these rats through the PCR superarray method. Accordingly, the betacarboline activates the generation of neurotrophins, thus proteins produced naturally in the body, which are responsible for the growth and differentiation of neurons. […]

[6] = tested on: Sonic Hedgehog, Wnt 1, Wnt 5a, engrailed 1, Nurr 1, Pitx 3, Aldh1a1, DAT, tyrosin hydroxylase; assay: Real-time-RT-PCR of neurotrophic transcription factors and dopamine markers in midbrain cultures; type: cell-based, mice; details: 50 μM, 48 hours and 48 hours after removal
Method: FIG. 7 Evidence of gene expression of neurotrophic transcription factors and dopamine markers with real-time-RT-PCR after incubation with 50 μM 9-methyl-β-carboline for 48 hours 10 DIV-12 DIV.
For this purpose, real-time-RT-PCR experiments were carried out. In this quantitative method the transcription of selected genes is measured. We selected genes which are enhanced under proliferation and differentiation conditions and such that are of importance for the formation, stability and degradation of dopaminergic neurons. The analyses were conducted in midbrain cultures after exposition to 50 μM 9-methyl-β-carboline for 48 hours and 48 hours after removal of 9-methyl-β-carboline. Control cultures were kept simultaneously under the same conditions. […] Moreover, factors were increased which are activated during the formation of dopaminergic precursor cells (progenitor cells) (Aldh1a1), the dopamine transporter (DAT) and tyrosin hydroxylase.

[7] = tested on: midbrain cells in culture; assay: LDH release of midbrain cells in culture; type: cell-based, mice; details: 48 hours; dose-dependent up to 50 μM
Method: FIG. 4a LDH release after 48 hours of incubation with 50 μM 9-methyl-β-carboline for 48 hours 10 DIV-12 DIV.
as §1

[8] = tested on: dopaminergic neurons; assay: Dopamine concentration in midbrain culture; type: cell-based, mice; details: 50 μM, 48 hours, 10 DIV-12 DIV
Method: FIG. 2a Dopamine concentration (dopamine content) after incubation with 50 μM 9-methyl-β-carboline for 48 hours from 10 DIV-12 DIV.
as §2

## Cn1c2ccccc2c2ccncc21 [9-methyl-β-carboline]
[1]
  cells in culture that died: about 10%
[2]
  neuronal transport capacity of dopamine (3H-dopamine uptake): increases
[3]
  transcription of genes involved in apoptosis: transcribed less
  transcription of genes involved in neuronal differentiation: increased
  transcription of genes which activate inflammation processes: transcribed less
[4]
  total number of neurons: increases
[5]; left striatum
  concentration of GDNF: did not increase
[5]; right striatum
  increase of GDNF by factor: 12
[6]
  transcription of Aldh1a1, dopamine transporter (DAT) and tyrosin hydroxylase: increased
  transcription of Sonic Hedgehog, Wnt 1, Wnt 5a, engrailed 1, Nurr 1 and Pitx 3: activated
[7]
  LDH concentration in the medium compared to control: decreased
[8]
  dopamine concentration (dopamine content): slightly increased without reaching significance level

From patent US8334299B2, “β-carboline for the treatment of neurodegenerative diseases” (Ellneuroxx, Ltd., priority 2007, dated 2012)
